Assay results as given in the NIST ThermoML archive (doi:10.1021/acs.jced.7b01006).
± gives the expanded uncertainty stated by the source.

Columns and labels:
[1] = for electrical conductivity / viscosity / mass density: 100 kPa, Liquid; for electrical conductivity: Alternating current cell with electrodes; for viscosity: Falling or rolling sphere viscometry; for mass density: Vibrating tube method; for surface tension liquid-gas: Wilhelmy plate
[2] = xn = mol fraction of the nth substance listed; settings: 100 kPa, Liquid, x2 = 0; for viscosity: Falling or rolling sphere viscometry; for mass density: Vibrating tube method

SMILES: CCC[n+]1ccn(C)c1C.N#C[S-] [1,2-dimethyl-3-propylimidazolium thiocyanate]
- electrical conductivity ([1]; 288.15 K): 0.255 ± 0.026 S/m
- viscosity ([1]; 288.15 K): 316.5 ± 20 mPa·s
- mass density ([1]; 288.15 K): 1099.81 ± 2.9 kg/m3
- electrical conductivity ([1]; 293.15 K): 0.361 ± 0.036 S/m
- viscosity ([1]; 293.15 K): 215.8 ± 11 mPa·s
- mass density ([1]; 293.15 K): 1096.75 ± 2.9 kg/m3
- surface tension liquid-gas ([1]; 298.15 K): 48.8 ± 0.8 mN/m
- electrical conductivity ([1]; 298.15 K): 0.459 ± 0.046 S/m
- viscosity ([1]; 298.15 K): 151.9 ± 6.1 mPa·s
- mass density ([1]; 298.15 K): 1093.67 ± 2.9 kg/m3
- electrical conductivity ([1]; 303.15 K): 0.583 ± 0.058 S/m
- viscosity ([1]; 303.15 K): 110.1 ± 3.4 mPa·s
- mass density ([1]; 303.15 K): 1090.61 ± 2.9 kg/m3
- electrical conductivity ([1]; 308.15 K): 0.733 ± 0.073 S/m
- viscosity ([1]; 308.15 K): 83.42 ± 2 mPa·s
- mass density ([1]; 308.15 K): 1087.57 ± 2.9 kg/m3
- electrical conductivity ([1]; 313.15 K): 0.905 ± 0.091 S/m
- viscosity ([1]; 313.15 K): 64.78 ± 1.3 mPa·s
- mass density ([1]; 313.15 K): 1084.55 ± 2.9 kg/m3
- electrical conductivity ([1]; 318.15 K): 1.1 ± 0.11 S/m
- viscosity ([1]; 318.15 K): 50.96 ± 0.92 mPa·s
- mass density ([1]; 318.15 K): 1081.54 ± 2.9 kg/m3
- electrical conductivity ([1]; 323.15 K): 1.33 ± 0.13 S/m
- viscosity ([1]; 323.15 K): 41.55 ± 0.81 mPa·s
- mass density ([1]; 323.15 K): 1078.54 ± 2.8 kg/m3

SMILES: CCCCn1cc[n+](C)c1C.N#C[S-] [1-butyl-2,3-dimethylimidazolium thiocyanate]
- electrical conductivity ([1]; 288.15 K): 0.106 ± 0.011 S/m
- viscosity ([1]; 288.15 K): 452.7 ± 34 mPa·s
- mass density ([1]; 288.15 K): 1084.2 ± 2.9 kg/m3
- electrical conductivity ([1]; 293.15 K): 0.153 ± 0.015 S/m
- viscosity ([1]; 293.15 K): 311.3 ± 20 mPa·s
- mass density ([1]; 293.15 K): 1081.11 ± 2.9 kg/m3
- surface tension liquid-gas ([1]; 298.15 K): 44.8 ± 0.7 mN/m
- electrical conductivity ([1]; 298.15 K): 0.217 ± 0.022 S/m
- viscosity ([1]; 298.15 K): 218 ± 11 mPa·s
- mass density ([1]; 298.15 K): 1078.2 ± 2.8 kg/m3
- electrical conductivity ([1]; 303.15 K): 0.293 ± 0.029 S/m
- viscosity ([1]; 303.15 K): 157.9 ± 6.6 mPa·s
- mass density ([1]; 303.15 K): 1075.18 ± 2.8 kg/m3
- electrical conductivity ([1]; 308.15 K): 0.386 ± 0.039 S/m
- viscosity ([1]; 308.15 K): 118.9 ± 3.9 mPa·s
- mass density ([1]; 308.15 K): 1072.16 ± 2.8 kg/m3
- electrical conductivity ([1]; 313.15 K): 0.496 ± 0.05 S/m
- viscosity ([1]; 313.15 K): 90.46 ± 2.3 mPa·s
- mass density ([1]; 313.15 K): 1069.15 ± 2.8 kg/m3
- electrical conductivity ([1]; 318.15 K): 0.627 ± 0.063 S/m
- viscosity ([1]; 318.15 K): 72.04 ± 1.5 mPa·s
- mass density ([1]; 318.15 K): 1066.16 ± 2.8 kg/m3
- electrical conductivity ([1]; 323.15 K): 0.774 ± 0.077 S/m
- viscosity ([1]; 323.15 K): 57.11 ± 1.1 mPa·s
- mass density ([1]; 323.15 K): 1063.2 ± 2.8 kg/m3

SMILES: CC#N [acetonitrile] + CCCCn1cc[n+](C)c1C.N#C[S-]
- viscosity ([2]; 288.15 K): 0.376 ± 0.005 mPa·s
- mass density ([2]; 288.15 K): 787.58 ± 2 kg/m3
- viscosity ([2]; 293.15 K): 0.357 ± 0.005 mPa·s
- mass density ([2]; 293.15 K): 781.89 ± 2 kg/m3
- viscosity ([2]; 298.15 K): 0.339 ± 0.005 mPa·s
- mass density ([2]; 298.15 K): 776.52 ± 2 kg/m3
- viscosity ([2]; 303.15 K): 0.324 ± 0.004 mPa·s
- mass density ([2]; 303.15 K): 771.12 ± 2 kg/m3
- viscosity ([2]; 308.15 K): 0.309 ± 0.004 mPa·s
- mass density ([2]; 308.15 K): 765.83 ± 2 kg/m3
- viscosity ([2]; 313.15 K): 0.295 ± 0.004 mPa·s
- mass density ([2]; 313.15 K): 760.36 ± 2 kg/m3
- viscosity ([2]; 318.15 K): 0.283 ± 0.004 mPa·s
- mass density ([2]; 318.15 K): 755.14 ± 2 kg/m3
- viscosity ([2]; 323.15 K): 0.272 ± 0.004 mPa·s
- mass density ([2]; 323.15 K): 749.44 ± 2 kg/m3

SMILES: CC#N [acetonitrile] + CCC[n+]1ccn(C)c1C.N#C[S-]
- viscosity ([2]; 288.15 K): 0.376 ± 0.005 mPa·s
- mass density ([2]; 288.15 K): 787.58 ± 2 kg/m3
- viscosity ([2]; 293.15 K): 0.357 ± 0.005 mPa·s
- mass density ([2]; 293.15 K): 781.89 ± 2 kg/m3
- viscosity ([2]; 298.15 K): 0.339 ± 0.005 mPa·s
- mass density ([2]; 298.15 K): 776.52 ± 2 kg/m3
- viscosity ([2]; 303.15 K): 0.324 ± 0.004 mPa·s
- mass density ([2]; 303.15 K): 771.12 ± 2 kg/m3
- viscosity ([2]; 308.15 K): 0.309 ± 0.004 mPa·s
- mass density ([2]; 308.15 K): 765.83 ± 2 kg/m3
- viscosity ([2]; 313.15 K): 0.295 ± 0.004 mPa·s
- mass density ([2]; 313.15 K): 760.36 ± 2 kg/m3
- viscosity ([2]; 318.15 K): 0.283 ± 0.004 mPa·s
- mass density ([2]; 318.15 K): 755.14 ± 2 kg/m3
- viscosity ([2]; 323.15 K): 0.272 ± 0.004 mPa·s
- mass density ([2]; 323.15 K): 749.44 ± 2 kg/m3

SMILES: CC#N [acetonitrile]
- viscosity ([1]; 288.15 K): 0.376 ± 0.005 mPa·s
- mass density ([1]; 288.15 K): 787.58 ± 2 kg/m3
- viscosity ([1]; 293.15 K): 0.357 ± 0.005 mPa·s
- mass density ([1]; 293.15 K): 781.89 ± 2 kg/m3
- viscosity ([1]; 298.15 K): 0.339 ± 0.005 mPa·s
- mass density ([1]; 298.15 K): 776.52 ± 2 kg/m3
- viscosity ([1]; 303.15 K): 0.324 ± 0.004 mPa·s
- mass density ([1]; 303.15 K): 771.12 ± 2 kg/m3
- viscosity ([1]; 308.15 K): 0.309 ± 0.004 mPa·s
- mass density ([1]; 308.15 K): 765.83 ± 2 kg/m3
- viscosity ([1]; 313.15 K): 0.295 ± 0.004 mPa·s
- mass density ([1]; 313.15 K): 760.36 ± 2 kg/m3
- viscosity ([1]; 318.15 K): 0.283 ± 0.004 mPa·s
- mass density ([1]; 318.15 K): 755.14 ± 2 kg/m3
- viscosity ([1]; 323.15 K): 0.272 ± 0.004 mPa·s
- mass density ([1]; 323.15 K): 749.44 ± 2 kg/m3
